Values quoted from earlier work as cited in patent US20120164100A1, “TEMPERATURE SENSITIVE HYDROGEL AND BLOCK COPOLYMERS” (priority 2010, published 2012).

solubility (pH above 6, Critical Micelle Concentration): about 5 mg/mL
half life (physiological condition): very short
Structure (SMILES): CCCCC[C@H](O)/C=C/[C@H]1[C@H](O)CC(=O)[C@@H]1C/C=C\CCCC(=O)O [PGE2, Prostaglandin E2]
